Read-outs that look alike come from different tables or passages of the source.
Columns and labels:
Sarcoma 180 solid tumor = experiment: Antitumor Effect with respect to Sarcoma 180 Solid Tumor Mouse; assay type: in vivo, ICR mice; details: 10 mg/kg in abdominal cavity, 10 days; day 11
Protocol: The antitumor effect test was conducted according to the method of the U. S. National Cancer Institute (NCI) (Cancer Chemotherapy Reports part 3, Vol. 3, 1 (1978)). Cell suspension of Sarcoma 180 cells (mouse sarcoma virus) which was employed as the tumor cell strain for transplant was prepared by diluting the cells in the Hank's solution at 2×10^7 cells/ml concentration ([…]), and ICR mice (10 mice per group) aged 5 weeks were injected subcutaneously with 0.2 ml of the cell suspension at the region of the back. Setting the day of the tumor transplantation as day 0. the mice were administered in the abdominal cavity with the compounds of the invention (Preparation Examples 1 and 37), 5-fluorouracyl, and the solution as the control for 10 days consecutively from day 1. On day 11, the mice were sacrificed, and portions of the solid tumor were removed so that weights thereof were measured. The dosage of each of the test samples was 10 mg/kg.

CaCo-2 cells = experiment: Cytostatic Action Test on Various Cells (XTT method); assay type: cell-based; details: for IC50: Homo sapiens, read-out: Cytostatic rate (IC50)
Protocol: The cytostatic measurement of the various cancer cells were conducted according to the method of the U.S. National Cancer Institute (NCI). Adhesive cells such as CaCo-2 and HepG2 were adjusted in each of the specified culture mediums at 0.5×10^5 cells/ml concentration and pipetted into a 96 well-plate (Costar3695) in an amount of 100 μl/well. The cells were cultured under the conditions of at 37° C. in 5% CO2 atmosphere for 24 hours to allow the cell adhesion, and then the numbers of each of the cells were determined by the XTT method to be recorded as the cell number of day 0 (C0days). After that, only the medium solutions were exchanged in the control groups, and culture mediums each containing the test samples adjusted to each of the specified concentrations were exchanged In the test sample dispensing groups, then the cells were cultured under the conditions of at 37° C. in 5% CO2 atmosphere for 72 hours. The numbers of each of the cells were determined by the XTT method to be recorded as the cell number of day 3 (C3days). Further, only the medium solutions were pipetted into the control groups and the test sample administration groups were adjusted to 5×10^5 cells/ml concentrations in each of the specified culture mediums containing the test samples adjusted to each of the specified concentrations, then pipetted into a 96 well-plate (Costar3695) in an amount of 100 μl/well. The cells were cultured under the condition of at 37° C. in 5% CO2 atmosphere for 72 hours, and the number of each of the cells (T3days) were determined in the same manner.
Cell proliferation rate (%) with respect to control groups=[(T3days
-C0days)/(C3days -C0days)]×100 Formula: 5

[1] = system: pain threshold of brewer's yeast inflamed hind paw; experiment: Analgesic Action Test (Randall et al.); assay type: in vivo, SD rats; details: 3 mg/kg
Protocol: SD rats (6 rats per group) fasted overnight were employed for the test. After the measurement of pain threshold values of the left and right hind paws twice using an analgesimeter, the rats were injected subcutaneously with 0.1 ml of 20% brewer's yeast solution at the plantar area of the right hind paw to elicit inflammation. Two hours after the elicitation of inflammation, the pain threshold values of the left and right hind paws were measured and, immediately after the measurement, the test samples were administered orally to the rats. Three hours after the administration, the pain threshold values of the left and right hind paws were measured. […] The dosage amount of each of the test samples was 3 mg/kg.
Pain threshold value rising rate (%)=((pain threshold value of 3 hours after drug administration-pain threshold value of 2 hours after yeast administration)/(pain threshold value before yeast administration-pain threshold value of 2 hours after yeast administration))×100
Pain threshold value fluctuation rate (%)=(1 -(pain threshold value of 3 hours after drug administration/pain threshold value of 2 hours after […]

Brewer's Yeast Fever = experiment: Antipyretic Action Test With Respect To Brewer's Yeast Fever; assay type: in vivo, rats
Protocol: The antipyretic action was measured as described in the following. A sensor was inserted into the rectum of each rats and the body temperature of one hour after the insertion was recorded as the basal body temperature. The rats were injected subcutaneously with 2 ml/body of 20% brewer's yeast at the region of back and, 18 hours after the injection, the intrafebrile body temperatures were measured. Rats who had shown not less than 0.75° C. of body temperature elevation were selected to whom the test samples was administered orally. The body temperatures of the selected rats were measured every one hour for the following 5 hours. The dosage of each of the test samples was 10 mg/kg.

adjuvant arthritis = experiment: Rat Adjuvant Arthritis Test; assay type: in vivo, SD rats; details: 3 mg/kg, oral
Protocol: SD rats were injected subcutaneously with […] liquid paraffin/rat of H-37RA strain in the plantar area of the right hind paw. Only liquid paraffin (0.05 ml) was administered to control groups in the same manner. 21 days after the administration, rats showing the evidence of arthritis were selected and divided into groups having equal mean left and right hind paw volumes, and also having equal arthritis scores. From the date of the grouping, the test samples were administered orally to the rats once daily for 7 days (only the solvent was administered to the negative and positive control groups). The degree of the arthritis was quantitatively evaluated by measuring the volumes of the left and right hind paws by using a volume meter (manufactured by Muromachi Kikai) and by scoring the degree of arthritis by macroscopic observation as illustrated in Table 2. According to the scoring criteria in Table 2, 15 is a perfect score.
The dosage of each of the test samples was 3 mg/kg.

Human COX-2 = biological target: T1, Human COX-2 (Homo sapiens, UniProt P35354); experiment: Human COX-2 Inhibitory Activity Test (LPS-induced PGE2 in blood); assay type: cell-based
T1 construct: endogenous in cells; host or cells: heparinised whole blood of a healthy human donor pretreated with aspirin, stimulated with LPS (own knowledge: COX-2 is induced in monocytes)
T1 sequence (P35354 18-604): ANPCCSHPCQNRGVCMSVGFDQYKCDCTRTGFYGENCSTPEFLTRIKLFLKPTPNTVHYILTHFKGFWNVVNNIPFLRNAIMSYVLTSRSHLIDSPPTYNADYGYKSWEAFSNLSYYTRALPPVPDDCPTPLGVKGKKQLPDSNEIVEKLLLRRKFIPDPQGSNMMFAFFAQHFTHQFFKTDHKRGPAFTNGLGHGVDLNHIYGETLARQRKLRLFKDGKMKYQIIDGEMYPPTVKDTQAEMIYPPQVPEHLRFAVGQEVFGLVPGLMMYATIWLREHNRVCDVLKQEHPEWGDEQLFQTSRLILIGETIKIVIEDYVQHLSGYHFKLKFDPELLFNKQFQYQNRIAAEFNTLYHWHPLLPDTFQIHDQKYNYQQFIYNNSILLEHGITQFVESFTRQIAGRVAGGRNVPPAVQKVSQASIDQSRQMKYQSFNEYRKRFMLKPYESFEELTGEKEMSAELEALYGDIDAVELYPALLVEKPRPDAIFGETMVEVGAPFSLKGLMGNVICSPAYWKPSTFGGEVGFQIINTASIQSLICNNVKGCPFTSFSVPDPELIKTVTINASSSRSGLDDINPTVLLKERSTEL
Protocol: COX-1 and COX-2 activities were measured according to the method of Patrignani et al. (J. Pharm. Exp. Ther. Vol. 271, 1705 (1994)).
(2) COX-2 activity was measured in the following procedure. To blood collected from a healthy normal who had taken 330 mg of aspirin 48 hours before the blood collection in order to inhibit the COX-1 activity, 10 unit/ml of sodium heparin was added, and then pipetted into glass test tubes by 1 ml. 10 μg/ml of Lipopolysaccharide (LPS) was added thereto and the plasma obtained by the specified operation was stored at -40° C. until the measurement for the amount of prostaglandin E2 (PGE2). Test samples containing the test samples were treated in the same manner of operation as described above.
(4) The measurement for the PGE2 content was conducted in the following procedure. In a part of 96 well plate coated with goat anti-mouse antibody, 2 wells were alloted respectively to a blank well, Non-specific Binding (NSB) well, Maximum Binding (B0) well, standard wells at seven concentrations of PGE2 (1000 pg/ml) in doubling dilution ranging from 1000-15.6 pg/ml. The rest of the wells were used for the sample measurement. EIA buffer was added to the NSB wells (100 μl) and to the B0 wells (50 μl), respectively. 50 μl of each of the standard dilution was added in an order from thinner to thicker concentrations. Each of the samples was added to the rest of the wells in an amount of 50 μl. Then, 50 μl of PGE2 tracer was added to each of the wells except for blank wells. Further, 50 μl PGE2 monoclonal antibody was added to each of the wells except for the NSB wells and blank wells, then the well plate was covered with a plastic film and the reaction continued at room temperature for 18 hours. When the reaction was terminated, the wells were washed 5 times with a wash buffer. 200 μl of Elman's reagent was added to each of the wells, and then the well plate was covered with a plastic film and developed for 60 minutes in a dark place. The absorbance at 405 nm was measured by an Immuno Reader (NJ-2000, manufactured by Nippon Intermed Co., Ltd.). From the measurement result, %B/B0 was calculated and, applying it to the approximation formula of Hill Plot, the concentration of the samples was determined to be 40 times concentration. The dilution was conducted with an EIA buffer throughout the Test Example 3.

carrageenan footedema = experiment: Carrageenan Footedema Suppression Test; assay type: in vivo, SD rats; details: oral; paw volume three hours after carrageenan administration
Protocol: The carrageenin footedema suppression test was conducted according to the method of Winter et al. (J. Pharm. Exp. Ther., Vol.141, 369 (1963)). The test samples suspended in Tween 80 were administered orally to SD rats (6 rats per 1 group) in an amount of 1 ml per 100 g of the body weight, while only the solvent was administered in the same manner as above as a control. One hour after the administration, 1% carrageenan physiological saline was injected subcutaneously to the rats in the plantar area of the right hind paw. Three hours after the carrageenan administration, the paw volumes were measured and the edematization rate (%) was calculated with Formula 1 and then edematization suppression rate (%) was calculated with Formula 2.
Edematization rate (%)=((paw volume after carrageenan injection- paw volume before carrageenan injection)/(paw volume before carrageenan injection)×100 Formula: 1
Edematization suppression rate (%)=((edematization rate of control-
edematization rate of test samples)/edematization rate of […]

O=c1[nH]cc(F)c(=O)[nH]1 [5-fluorouracil, reference compound]
Tumor Weight (Sarcoma 180 solid tumor): 0.930 g | IC50 (CaCo-2 cells; Caco-2, 72 h): 3300 nM

CS(=O)(=O)Nc1ccc([N+](=O)[O-])cc1OC1CCCCC1 [Control Compound (c), N-(2-cyclohexyloxy-4-nitrophenyl)methanesulfonamido, reference compound]
threshold value fluctuation, non-inflammatory paw [1]: exerted no influence on the threshold value fluctuation with respect to the non-inflammatory paw in the same manner as control compound (c) | Pain Threshold Value Fluctuation Rate ([1]; po, 3 h): -1.46% | Pain Threshold Value Rising Rate ([1]; po, 3 h): 24.0% | Body temperature 1 Hour After (Brewer's Yeast Fever; 10 mg/kg oral, 1 hour after): 37.67 °C | Body temperature 3 Hours After (Brewer's Yeast Fever; 10 mg/kg oral, 3 hours after): 37.04 °C | Body temperature 5 Hours After (Brewer's Yeast Fever; 10 mg/kg oral, 5 hours after): 37.12 °C | Intrafebrile Body Temperature (Brewer's Yeast Fever; 18 hours after yeast injection, before administration, 10 mg/kg group): 38.89 °C | Basal Body Temperature (Brewer's Yeast Fever; one hour after sensor insertion, before yeast, 10 mg/kg group): 37.41 °C

COc1ccc2c(c1)c(CC(=O)O)c(C)n2C(=O)c1ccc(Cl)cc1 [Indomethacin, reference compound]
Right Hind Paw Volume day 21 (adjuvant arthritis; day 21 (starting date of administration), once daily): 3.88 mL | Right Hind Paw Volume day 27 (adjuvant arthritis; day 27, once daily for 7 days): 2.69 mL

Cc1cc(-c2ccc3c(ccn3C)c2)c(-c2ccc(S(C)(=O)=O)cc2)[nH]1 [Preparation Example 37, 4-(5-N-methylindolyl)-2-methyl-5-(4-methylsulfonylphenyl)-1H-pyrrole]
Tumor Weight (Sarcoma 180 solid tumor): 0.906 g | IC50 (Human COX-2; human blood, LPS, PGE2, IC50 from Hill Plot): 140 nM | COX-1/COX-2 (Human COX-2; ratio of IC50 COX-1 to COX-2): > 714 | cytostatic action (CaCo-2 cells; CaCo-2 cells, colon cancer cells): demonstrated a cytostatic action with respect to CaCo-2 cells | IC50 (CaCo-2 cells; CaCo-2, 72 hours, XTT method): 950 nM | Edematization Suppression rate (carrageenan footedema): 26.5%

From US6294568A, “5-arylpyrrole derivatives” (priority 1997, dated 2001)
